In patent publication US20240254135A1, “POLYPHENOL COMPOUNDS” (Epirium Bio Inc., priority 2022, published 2024):

Test: Pharmacokinetics: quantitative determination in mice plasma (LCMS)
Format: in vivo, C57BL/6 Mice
Settings: C57BL/6, mouse, 10 mg/kg PO single dose, 10% NMP vehicle; for AUC(0-t): read-out: AUC0-4 h
Method: C57BL/6 Mice, Age 7-9 weeks, body weight range 20-25 g were used. The mice were fasted overnight. Mice were dosed once a day for a single day at 10 mg/kg, 10 mg/kg. 6 time-points were used for whole blood. 10% NMP was used as a vehicle. 9 animals were used per treatment, with three groups of three animals each. Group 1 had time points at 15 and 60 minutes, Group 2 had time points at 30 and 120 minutes, and Group 3 had time points at 90 and 240 minutes. An Oral (PO) route was used. Plasma and brain samples were collected (brain sample collected at terminal time point). Plasma was collected through the centrifugation of whole blood at 10,000 rpm for 10 minutes at 4° C. Samples were stored at −80° C. until processing.
1.00 mg/mL in 100% MeOH PP vials (prepared at RT yellow light) at 2-8° C. were used as stock solution. 12.22-50000 ng/ml using 80% MeOH PP vials (prepared at RT yellow light) at 2-8° C. were used as working solution. 0.98-4000 ng/ml (prepared at RT yellow light) was used for the curve range. For Compounds 75b and 78a, 1.00 mg/mL of Compound 79 in 100% methanol Ria vials (Prepared at RT yellow light) was used as IS stock solution, and 60 ng/ml of Compound 79 in 80% methanol (Prepared at RT yellow light) was used as IS working solution. For Compound 76b, 1.00 mg/mL of Compound 44 in 100% methanol Ria vials (Prepared at RT yellow light) was used as IS stock solution, and 60 ng/ml of Compound 44 in 80% methanol (Prepared at RT yellow light) was used as IS working solution. A linear, 1/x2 fit type was used. The injection volume was 15 μL. Mobile Phase A was 0.1% Formic Acid in water at room temperature. Mobile Phase B was 100% methanol at room temperature. R0 wash solution was 80% methanol at room temperature. R^3 wash solution was IPA/MeOH/ACN/water (1:1:1:1) at room temperature. The column was Agilent Eclipse 50*2.1 mm 1.8 μm and the instrument was Shimadzu LC-40 UPLC and AB Sciez 6500+ with LCMS002.
For Compound 75b, using a pipette with Methanol-rinsed pipette tips, 25 μL of each sample was aliquoted (calibration curve sample, QC samples and blank matrix) to labeled 12×75-mm glass tubes. Using Methanol-rinsed pipette tips, 5.0 μL of IS of conc. 60 ng (Compound 79) was aliquoted to each standards and samples except Blank. All tubes were mixed on a multi-tube vortex for approximately 30 seconds. 50 μL of 10 mM Sodium bicarbonate were added. 1 ml of Ethyl Acetate was added. All tubes were mixed on a multi-tube vortex for approximately 5 minutes then centrifuged for 10 min at 5,000 rpm, 4° C. The sample was kept in methanol containing dry ice for a few seconds to freeze the Aqueous layer (flash freeze method). The upper organic layer was poured from the frozen tubes into the labeled 12×75-mm glass tubes then evaporated to dryness under nitrogen using Liquid Evaporator (30° C., ˜15 psi, ˜10 mins). 200 μl of reconstitution solution (0.1% Acetic acid:MeOH (60:40 v/v) were added into each tube. Samples were vortexed for 30 seconds then transferred to amber glass injection vials for injection.
For Compounds 76b and 78a, using a pipette, 25 μL of each sample were aliquoted (calibration curve sample, QC samples and blank matrix) to labeled 1.5 ml eppendorfs. Using a pipette, 5.0 μL of IS of conc. 100 ng (Cocktail IS) was aliquoted to each standards and samples except Blank. All tubes were mixed on a multi-tube vortex for approximately 30 seconds. 1 ml of tert-butyl methyl ether (TBME) was added. All tubes were mixed on a multi-tube vortex for approximately 5 minutes then centrifuged for 10 min at 10,000 rpm, 4° C. The sample was kept in methanol containing dry ice for few seconds to freeze the Aqueous layer (flash freeze method). The upper organic layer was poured from the frozen tubes into the labeled 12×75-mm rial vials then vaporated to dryness under nitrogen using Liquid Evaporator (30° C., −15 psi, 10 mins). 200 μl of reconstitution solution (10 mM Ammonium Formate: MeOH) (40:60 v/v) was added into each tube. […]

Cmax [µg/mL] | Tmax [min] | AUC(0-t) [µg·h/mL] | Structure (SMILES)
0.138 | 90 | 0.133 | COc1cc(C2Oc3ccccc3CC2O)ccc1F (single isomer, unassigned) [Compound 75b, 2-(4-fluoro-3-methoxyphenyl)chroman-3-ol]
0.0893 | 15 | 0.0457 | Oc1cc(O)c2c(c1)OC(c1ccc(O)c(F)c1)C(O)C2 (single isomer, unassigned) [Compound 76b, 2-(3-fluoro-4-hydroxyphenyl)chromane-3,5,7-triol]
0.0498 | 15 | 0.0595 | Oc1cc(O)c2c(c1)OC(c1ccccc1)C(O)C2 (single isomer, unassigned) [Compound 78a, 2-phenylchromane-3,5,7-triol]
